# Assays:
# Experiment in all cases: Experiment on weeding effect in post-emergence stage
# Type in all cases: in vivo
# Settings in all cases: dose 15 g a.i./ha, fresh weight control rate level
# Echinochloa crusgalli = test system: Echinochloa crusgalli
# Text: (§1) Experiment on weeding effect in post-emergence stage:
# (§2) Monocotyledonous and dicotyledonous weed seeds (Descurainia sophia, Capsella bursa-pastoris, Abutilon theophrasti, Galium aparine, Stellaria media, Lithospermum arvense, Rorippa indica, Alopecurus aequalis, Alopecurus japonicus, Beckmannia syzigachne, Sclerochloa dura, Conyza Canadensis, Phleum paniculatum, Veronica didyma Tenore, Eleusine indica, Bromus japonicus, Aegilops tauschii, Phalaris arundinacea, Amaranthus retroflexus, Chenopodium album, Commelina communis, Sonchus arvensis, Convolvulus arvensis, Cirsium setosum, Solanum nigrum, Acalypha australis, Digitaria sanguinalis, Echinochloa crusgalli, Setaria viridis, Setaria glauca, Leptochloa chinensis, Monochoria vaginalis, Sagittaria trolia, Scirpus juncoides, Cyperus rotundus, Cyperus iria, Cyperus difformis, Elmbristylis, Portulaca oleracea, Xanthium sibiricum, Pharbitis nil) and major crop seeds (wheat, corn, rice, soybean, cotton, oilseed rape, millet, sorghum, potato, sesame, ricinus) were placed in plastic pots filled with soil, then covered with 0.5-2 cm of soil, allowed to grow in a good greenhouse environment. After 2 weeks of sowing, the test plants were treated in the 2-3 leaf stage. The tested compounds of the present invention were respectively dissolved in acetone, then added with Tween 80 and 1.5 liter/ha of emulsifiable concentrate of methyl oleate as synergist, diluted with a certain amount of water to obtain a solution with a certain concentration, and sprayed with a spray tower onto the plants. After the application, the plants were cultured for 3 weeks in the greenhouse, and then the experimental results of the weeding were counted. The doses of the used compounds were 500, 250, 125, 60, 15 g a.i./ha, and the averages were obtained by repeating for three times.
# Eleusine indica = test system: Eleusine indica
# Text: as §1, §2
# Leptochloa chinensis = test system: Leptochloa chinensis
# Text: as §1, §2
# Galium aparine = test system: Galium aparine
# Text: as §1, §2
# Abutilon theophrasti = test system: Abutilon theophrasti
# Text: as §1, §2
# Veronica didyma Tenore = test system: Veronica didyma Tenore
# Text: as §1, §2
# Digitaria sanguinalis = test system: Digitaria sanguinalis
# Text: as §1, §2
# Amaranthus retroflexus = test system: Amaranthus retroflexus
# Text: as §1, §2
# Setaria viridis = test system: Setaria viridis
# Text: as §1, §2
Structure (SMILES),"weeding effect in post-emergence stage, Echinochloa crusgalli (level) (Echinochloa crusgalli)","weeding effect in post-emergence stage, Eleusine indica (level) (Eleusine indica)","weeding effect in post-emergence stage, Leptochloa chinensis (level) (Leptochloa chinensis)","weeding effect in post-emergence stage, Galium aparine (level) (Galium aparine)","weeding effect in post-emergence stage, Abutilon theophrasti (level) (Abutilon theophrasti)","weeding effect in post-emergence stage, Veronica didyma Tenore (level) (Veronica didyma Tenore)","weeding effect in post-emergence stage, Digitaria sanguinalis (level) (Digitaria sanguinalis)","weeding effect in post-emergence stage, Amaranthus retroflexus (level) (Amaranthus retroflexus)","weeding effect in post-emergence stage, Setaria viridis (level) (Setaria viridis)"
CCO/C(C)=N/OC(=O)C1(C)CC(c2cc(-n3c(=O)n(C)c(=S)n(C)c3=S)c(F)cc2Cl)=NO1 (stereo not drawn) [Compound 67],5 (Level 5: growth control rate is above 85%),5 (Level 5: growth control rate is above 85%),5 (Level 5: growth control rate is above 85%),5 (Level 5: growth control rate is above 85%),5 (Level 5: growth control rate is above 85%),5 (Level 5: growth control rate is above 85%),5 (Level 5: growth control rate is above 85%),5 (Level 5: growth control rate is above 85%),5 (Level 5: growth control rate is above 85%)
C/C(=N/OC(=O)C1(C)CC(c2cc(-n3c(=O)n(C)c(=S)n(C)c3=O)c(F)cc2Cl)=NO1)c1ccccc1 (stereo not drawn) [Compound 124],5 (Level 5: growth control rate is above 85%),5 (Level 5: growth control rate is above 85%),5 (Level 5: growth control rate is above 85%),5 (Level 5: growth control rate is above 85%),5 (Level 5: growth control rate is above 85%),5 (Level 5: growth control rate is above 85%),5 (Level 5: growth control rate is above 85%),5 (Level 5: growth control rate is above 85%),5 (Level 5: growth control rate is above 85%)
Cn1c(=S)n(C)c(=O)n(-c2cc(C3=NOC(C)(C(=O)ON=C(c4ccccc4)c4ccccc4)C3)c(Cl)cc2F)c1=O (stereo not drawn) [Compound 140],5 (Level 5: growth control rate is above 85%),5 (Level 5: growth control rate is above 85%),5 (Level 5: growth control rate is above 85%),5 (Level 5: growth control rate is above 85%),5 (Level 5: growth control rate is above 85%),5 (Level 5: growth control rate is above 85%),5 (Level 5: growth control rate is above 85%),5 (Level 5: growth control rate is above 85%),5 (Level 5: growth control rate is above 85%)
CC=NOC(=O)C1(C)CC(c2cc(-n3c(=O)n(C)c(=S)n(C)c3=O)c(F)cc2Cl)=NO1 (mixture of isomers) [Compound 2],5 (Level 5: growth control rate is above 85%),5 (Level 5: growth control rate is above 85%),5 (Level 5: growth control rate is above 85%),5 (Level 5: growth control rate is above 85%),5 (Level 5: growth control rate is above 85%),5 (Level 5: growth control rate is above 85%),5 (Level 5: growth control rate is above 85%),5 (Level 5: growth control rate is above 85%),5 (Level 5: growth control rate is above 85%)
CC(=NOC(=O)C1(C)CC(c2cc(-n3c(=O)n(C)c(=S)n(C)c3=O)c(F)cc2Cl)=NO1)C(C)C (mixture of isomers) [Compound 80],5 (Level 5: growth control rate is above 85%),5 (Level 5: growth control rate is above 85%),5 (Level 5: growth control rate is above 85%),5 (Level 5: growth control rate is above 85%),5 (Level 5: growth control rate is above 85%),5 (Level 5: growth control rate is above 85%),5 (Level 5: growth control rate is above 85%),5 (Level 5: growth control rate is above 85%),5 (Level 5: growth control rate is above 85%)
COCC(C)=NOC(=O)C1(C)CC(c2cc(-n3c(=O)n(C)c(=S)n(C)c3=O)c(F)cc2Cl)=NO1 (mixture of isomers) [Compound 121],5 (Level 5: growth control rate is above 85%),5 (Level 5: growth control rate is above 85%),5 (Level 5: growth control rate is above 85%),5 (Level 5: growth control rate is above 85%),5 (Level 5: growth control rate is above 85%),5 (Level 5: growth control rate is above 85%),5 (Level 5: growth control rate is above 85%),5 (Level 5: growth control rate is above 85%),5 (Level 5: growth control rate is above 85%)
Cc1ccc(C=NOC(=O)C2(C)CC(c3cc(-n4c(=O)n(C)c(=S)n(C)c4=O)c(F)cc3Cl)=NO2)o1 (mixture of isomers) [Compound 117],5 (Level 5: growth control rate is above 85%),5 (Level 5: growth control rate is above 85%),5 (Level 5: growth control rate is above 85%),5 (Level 5: growth control rate is above 85%),5 (Level 5: growth control rate is above 85%),5 (Level 5: growth control rate is above 85%),5 (Level 5: growth control rate is above 85%),5 (Level 5: growth control rate is above 85%),5 (Level 5: growth control rate is above 85%)
CCOC(C)=NOC(=O)C1(C)CC(c2cc(-n3c(=O)n(C)c(=S)n(C)c3=O)c(F)cc2Cl)=NO1 (mixture of isomers) [Compound 120],5 (Level 5: growth control rate is above 85%),5 (Level 5: growth control rate is above 85%),5 (Level 5: growth control rate is above 85%),5 (Level 5: growth control rate is above 85%),5 (Level 5: growth control rate is above 85%),5 (Level 5: growth control rate is above 85%),5 (Level 5: growth control rate is above 85%),5 (Level 5: growth control rate is above 85%),5 (Level 5: growth control rate is above 85%)
